Several values for one entry are separate records, joined by “and”; a condition that tells them apart may be missing. Equal values may be shown once. Read-outs that look alike come from different tables or passages of the source.
Key:
MOLM-13 = test: Cell growth inhibition, 4-day proliferation assay, MOLM-13; assay type: cell-based; conditions: read-out: Cell Viability (IC50, μM) MOLM-13
Procedure: The effect of representative Compounds of the Disclosure on cell viability was determined in a 4-day proliferation assay. Cells were maintained in the appropriate culture medium with 10% FBS at 37° C. and an atmosphere of 5% CO2. All the cell lines were used within three months of thawing fresh vials.
Cells were seeded in 96-well flat bottom (Corning COSTAR, Corning, N.Y., cat #3595) or white opaque cell culture plates (BD Falcon, cat #353296) at a density of 3,000-10,000 cells/well in 75 μl of culture medium. Compounds were serially diluted in the appropriate medium, and 75 μl of the diluted compounds were added to the appropriate wells of the cell plate. After the addition of compounds, the cells were incubated at 37° C. in an atmosphere of 5% CO2 for 4 days. Cell viability was determined using the CellTiter-Glo® Luminescent Cell Viability Assay Kit (Promega, Madison, Wis.) for leukemia cells and WST (2-(2-methoxy-4-nitrophenyl)-3-(4-nitrophenyl)-5-(2,4-disulfophenyl)-2H-tetrazolium, monosodium salt) Cell Counting-8 Kit (Dojindo Molecular Technologies, Inc., Rockville, Md.) for adhenrent cells according to the manufacturers' instructions. […]
For CellTiter-Glo assay (suspension cells), 100 μl of CellTiter-Glo® Reagent was added to each well, and then the plates were incubated at room temperature for 10-20 minutes. The luminescent signal was measured using a Tecan Infinite M1000 multimode microplate reader (Tecan, Morrisville, N.C.). The readings were normalized to the DMSO-treated cells and the IC50 was calculated by nonlinear regression (four parameters sigmoid fitted with variable slope, least squares fit, and no constraint) analysis using the GraphPad Prism 5 software. See US 2014/0256706.

recombinant BRD4 BD1 = molecular target: T1, recombinant BRD4 BD1 (Homo sapiens, UniProt O60885); test: Competitive fluorescence-polarization (FP) binding assay, BRD4 BD1; conditions: protein 10 nM, probe 1.5 nM
T1 construct: recombinant BRD4 BD1 and BRD4 BD2 proteins
Procedure: Fluorescence Polarization (FP) competitive binding studies were carried out using a FAM labeled fluorescent probe, see Cpd. […] Equilibrium dissociation constants (Kd) values of the fluorescent probe to BRD4 BD1 and BD2 proteins were determined from protein saturation experiments by monitoring the total fluorescence polarization of mixtures composed with the fluorescent probe at a fixed concentration and proteins with increasing concentrations up to full saturation. […] Plates were incubated at room temperature for 30 minutes with gentle shaking to assure equilibrium.
The IC50 and Ki values of compounds were determined in a competitive binding experiment. […] Mixtures of 10 μl of the tested compounds in assay buffer with 40% Ethylene Glycol and 190 μl of preincubated protein/probe complex solution in the assay buffer (100 mM potassium phosphate, pH 6.5, 0.01% Triton X-100) were added into assay plates which were incubated at room temperature for 30 minutes with gentle shaking. Final concentrations of proteins were 10 and 6 nM in assays for BRD4 BD1 and BD2, respectively. […] FP values were measured as described above. IC50 values were determined by nonlinear regression fitting of the competition curves.

recombinant BRD4 BD2 = molecular target: T2, recombinant BRD4 BD2 (Homo sapiens, UniProt O60885); test: Competitive fluorescence-polarization (FP) binding assay, BRD4 BD2; conditions: protein 6 nM, probe 1.5 nM
T2 construct: recombinant BRD4 BD1 and BRD4 BD2 proteins
Procedure: Fluorescence Polarization (FP) competitive binding studies were carried out using a FAM labeled fluorescent probe, see Cpd. […] Equilibrium dissociation constants (Kd) values of the fluorescent probe to BRD4 BD1 and BD2 proteins were determined from protein saturation experiments by monitoring the total fluorescence polarization of mixtures composed with the fluorescent probe at a fixed concentration and proteins with increasing concentrations up to full saturation. Serial dilutions of testing proteins were mixed with the fluorescent probe to a final volume of 200 μl in the assay buffer (100 mM phosphate buffer, pH=6.5, 0.01% Triton X-100 (Sigma, 282103) being added right before assays). Final fluorescent probe concentration was 1.5 nM for both proteins. Plates were incubated at room temperature for 30 minutes with gentle shaking to assure equilibrium. FP values in millipolarization units (mP) were measured using the Infinite M-1000 plate reader (Tecan U.S., Research Triangle Park, N.C.) in Microfluor 1 96-well, black, round-bottom plates (Thermo Scientific, Waltham, Mass.) at an excitation wavelength of 485 nm and an emission wavelength of 530 nm.
The IC50 and Ki values of compounds were determined in a competitive binding experiment. […] Mixtures of 10 μl of the tested compounds in assay buffer with 40% Ethylene Glycol and 190 μl of preincubated protein/probe complex solution in the assay buffer (100 mM potassium phosphate, pH 6.5, 0.01% Triton X-100) were added into assay plates which were incubated at room temperature for 30 minutes with gentle shaking. Final concentrations of proteins were 10 and 6 nM in assays for BRD4 BD1 and BD2, respectively. Final probe concentration is 1.5 nM in both assays. […] FP values were measured as described above. IC50 values were determined by nonlinear regression fitting of the competition curves.

[1] = Homo sapiens, MOLM-13, 96 h, 4 days incubation, MOLM-13 cells
[2] = FP competitive binding, read-out: IC50 (nM) BRD4 BD1

| IC50 (MOLM-13; [1]) [µM] | IC50 (recombinant BRD4 BD1; [2]) | IC50 (recombinant BRD4 BD2) | SMILES | also measured |
| --- | --- | --- | --- | --- |
| 2.5 | 311 nM | 285 nM | Cc1sc2c(c1Cc1cccc(Cl)c1)COCc1nnc(C)n1-2 [Cpd. No. 8, 3-(3-chlorobenzyl)-2,9-dimethyl-4H,6H-thieno[2,3-e][1,2,4]triazolo[3,4-c][1,4]oxazepine] | – |
| 1 | 88.4 nM | 271 nM | Cc1sc2c(c1Cc1ccc(Cl)cc1)COCc1nnc(C)n1-2 [Cpd. No. 9, 3-(4-chlorobenzyl)-2,9-dimethyl-4H,6H-thieno[2,3-e][1,2,4]triazolo[3,4-c][1,4]oxazepine] | – |
| 1.4 | 209 nM and 265 nM and 352 nM | – | Cc1nnc2n1-c1sc(Br)c(Cc3ccccc3)c1COC2 [Cpd. No. 31, 3-benzyl-2-bromo-9-methyl-4H,6H-thieno[2,3-e][1,2,4]triazolo[3,4-c][1,4]oxazepine] | IC50 (MOLM-13; 4 days incubation, MOLM-13 cells): 1.7 µM |
| 1.9 | 294 nM | – | Cc1nnc2n1-c1sc(-c3ccc(N)nc3)c(Cc3ccccc3)c1COC2 [Cpd. No. 32, 5-(3-benzyl-9-methyl-4H,6H-thieno[2,3-e][1,2,4]triazolo[3,4-c][1,4]oxazepin-2-yl)pyridin-2-amine] | – |
| 1 | – | – | C#Cc1sc2c(c1Cc1ccccc1)COCc1nnc(C)n1-2 [Cpd. No. 33, 3-benzyl-2-ethynyl-9-methyl-4H,6H-thieno[2,3-e][1,2,4]triazolo[3,4-c][1,4]oxazepine] | – |
| 1 | – | – | Cc1sc2c(c1Cc1ccccc1)CN(C)[C@H](C)c1nnc(C)n1-2 [Cpd. No. 34, (R)-3-benzyl-2,5,6,9-tetramethyl-5,6-dihydro-4H-thieno[3,2-f][1,2,4]triazolo[4,3-a][1,4]diazepine] | – |
| 2.2 | 602 nM | – | Cc1sc2c(c1Cc1ccccc1)CN(C)Cc1nnc(C)n1-2 [Cpd. No. 35, 3-benzyl-2,5,9-trimethyl-5,6-dihydro-4H-thieno[3,2-f][1,2,4]triazolo[4,3-a][1,4]diazepine] | – |
| – | 210 nM | 127 nM | Cc1sc2c(c1C1CCCc3ccccc31)COCc1nnc(C)n1-2 (centres unmarked) [Cpd. No. 54, 2,9-dimethyl-3-(1,2,3,4-tetrahydronaphthalen-1-yl)-4,6-dihydrothieno[2,3-e][1,2,4]triazolo[3,4-c][1,4]oxazepine] | – |
| – | – | – | Cc1nnc2n1-c1ccc(Cl)c(Cc3ccccc3)c1COC2 [Cpd. No. 71, 7-benzyl-8-chloro-1-methyl-4,6-dihydrobenzo[e][1,2,4]triazolo[3,4-c][1,4]oxazepine] | IC50 (MOLM-13; Homo sapiens, MOLM-13, 96 h): 3.8 µM; IC50 (recombinant BRD4 BD1; IC50 (nM) BRD4 BD1, FP competitive binding): 864 nM |
| 1.1 | 234 nM and 366 nM | – | Cc1nnc2n1-c1ccc(-c3cnn(C)c3)c(Cc3ccccc3)c1COC2 [Cpd. No. 73, 7-benzyl-1-methyl-8-(1-methyl-1H-pyrazol-4-yl)-4,6-dihydrobenzo[e][1,2,4]triazolo[3,4-c][1,4]oxazepine] | – |
| – | 1370 nM and 2610 nM and 1760 nM | 3230 nM and 3850 nM and 3950 nM | Cc1sc2c(c1Cn1cccn1)COCc1nnc(C)n1-2 [Cpd. No. 112, 3-((1H-pyrazol-1-yl)methyl)-2,9-dimethyl-4H,6H-thieno[2,3-e][1,2,4]triazolo[3,4-c][1,4]oxazepine] | – |
| – | 249 nM | 297 nM | Cc1sc2c(c1Cc1ccccc1)CO[C@H](C)c1nnc(C)n1-2 [Cpd. No. 114, (R)-3-benzyl-2,6,9-trimethyl-4H,6H-thieno[2,3-e][,2,4]triazolo[3,4-c][1,4]oxazepine] | – |
| – | 170 nM | 338 nM | Cc1sc2c(c1Cc1ccccc1)COC(CC(=O)OC(C)(C)C)c1nnc(C)n1-2 (centres unmarked) [Cpd. No. 115, tert-butyl 2-(3-benzyl-2,9-dimethyl-4H,6H-thieno[2,3-e][1,2,4]triazolo[3,4-c][1,4]oxazepin-6-yl)acetate] | – |
| – | 48600 nM | 83700 nM | Cc1sc2c(c1Br)CN(C(=O)OCc1ccccc1)[C@@H](C)c1nnc(C)n1-2 [Cpd. No. 147, benzyl (S)-3-bromo-2,6,9-trimethyl-4H-thieno[3,2-f][1,2,4]triazolo[4,3-a][1,4]diazepine-5(6H)-carboxylate] | – |

Source: patent publication US11548899B2, “Fused 1,4-oxazepines and related analogs as BET bromodomain inhibitors” (THE REGENTS OF THE UNIVERSITY OF MICHIGAN, priority 2016, dated 2023)
